Earlier results in US20150182535A1, “Antimicrobial Composition for the Treatment of Methicillin-resistant Staphylococcus aureus” (priority 2014, published 2015).

Test system: humans

SMILES	toxicity (general statement in words)	safety relative to artemether	toxicity relative to chloroquinine
C[C@H]1[C@H](N2CCS(=O)(=O)CC2)O[C@@H]2O[C@@]3(C)CC[C@H]4[C@H](C)CC[C@@H]1[C@@]24OO3 [Artemisone]	very low toxicity	–	–
C[C@H]1[C@H](OC(=O)CCC(=O)O)O[C@@H]2O[C@@]3(C)CC[C@H]4[C@H](C)CC[C@@H]1[C@@]24OO3 [artesunate]	–	twice as safe	one-fiftieth
